We go through two compounds from patent US12472196B2, “Use of DNMT inhibitor” (priority 2019, dated 2025).

Molecules are shown by their SMILES. Like-named read-outs stand apart in the source and are kept apart here. Bounds are passed on as bounds.

One series has as its target cytidine deaminase (Homo sapiens, UniProt P32320). Put plainly: Stability against cytidine deaminase (HPLC). On the procedure:
About 1 mg of a silyl etherified derivative of 5-aza-2′-deoxycytidine in carbohydrate moiety (see formula (I)) was dissolved in 1 mL of acetonitrile. 10 μL of the solution was added to 1 mL of PBS. 10 μl of a PBS solution of cytidine deaminase was added to the obtained solution and stirred at 37° C. for about 1 hour. 1 mL of acetonitrile was added to the reaction solution and centrifuged. The supernatant was analyzed with HPLC.
Cytidine deaminase: CDA (1-146aa), Human, His-tagged, Recombinant cytidine deaminase (ATGen) • HPLC conditions: • Column: CAPCELL PAK ADME (4.6 mm×150 mm, particle size: 3 μm) • Elution: eluate A=Purified water containing 10 mM ammonium formate • Eluate B=Acetonitrile • Gradient mode: A:B=99:1→5:95/30 minutes • Flow rate: 1.0 mL/min • Oven temperature: 40° C. • Detection: UV240 nm

A further series concerns Ba/F3 BCR-ABL^T315I. Put plainly: cells. On the procedure:
(§1) The CML cell line (BV173, MYL, Ba/F3 BCR-ABL^WT) and the TKI-resistant CML cell line (MYL-R, Ba/F3 BCR-ABL^T315I) in the Table below were seeded in 96-well plates at 3,000-7,000 cells/100 μL/well in a culture solution (10% FBS and RPMI-1640) and cultured under 5% CO2 gas flow at 37° C. for about 3 hours. Then, 100 μL of each compound diluted with the culture solution to 50-0.05 μM MYL, Ba/F3 BCR-ABL^WT, MYL-R, Ba/F3 BCR-ABL^T315I and 500 nM-0.1 nM BV173 was added to the above 96-well plates and cultured for 24 hours, followed by centrifugation (4° C., 1500 rpm, 5 minutes). The supernatant of the culture solution was discarded. 100 μL each of the compounds diluted with the culture solution was added again and cultured further for 24 hours (48 hours totally). The same procedure was repeated. After further culturing for 24 hours (72 hours totally) and reaction using CCK-8 reagent (DOJINDO, CK04) according to its attached instruction, the absorption at 450 nm and 620 nm (blank) of each well was determined with a plate reader (Varioskan Flash, Thermo-Fisher Scientific Co. Ltd.). The values of the wells without sample treatment were taken as 100%, and those of the wells treated with the samples were expressed as relative values. The values of IC50 (μm) were calculated (see Table 3-1). In addition, IC50 ratio of MYL-R cell line to MYL cell line and that of Ba/F3 BCR-ABL^T315I cell line to Ba/F3 BCR-ABL^WT cell line were calculated (see Table 3-2).
(§2) MYL-R cell line is an MYL cell line in which Lyn is overexpressed, and Ba/F3 BCR-ABL^T315I cell line is the one in which ABLT315I mutation is introduced into Ba/F3 BCR-ABL^WT cell line. They both have acquired resistance to TKI.

A further series concerns MYL-R. Put plainly: cells. On the procedure: as §1, §2
The next series concerns Ba/F3 BCR-ABL^WT. Put plainly: cells. The note with it: Mus musculus, BaF3, 72 h, read-out: IC50 Ba/F3 BCR-ABL^WT. As to the method: as §1
The subject of another series is BV173. Put plainly: cells. On the procedure:
as §1

The subject of the next series is MYL. Put plainly: cells. The conditions noted are these: 72 h, read-out: IC50 MYL. As to the method: as §1
The nature of series [1]: Non-enzymatic hydrolysis in PBS solution at 37° C. (HPLC). It counts as physicochemical. On the procedure: A silyl etherified derivative of 5-aza-2′-deoxycytidine in carbohydrate moiety (see formula (I)), for example, 5′-O-(triethylsilyl)-5-aza-2′-deoxycytidine (Compound F) (about 1 mg) was dissolved in 1 mL of acetonitrile. 5 μL of the solution was added to 100 μL of a PBS solution (10 mM), and stirred at 37° C. The reactant was analyzed over the time with HPLC.
HPLC conditions were same as those in test example 1.

The subject of series [2] is CpG island of LINE-1 in BV173 cell line. Put plainly: DNA demethylation effect: CpG methylation ratio of LINE-1 by pyrosequencing. The format is cell-based. The note with it: BV173, 72 hours. On the procedure: The methylation ratio of cytosine moiety of CpG island of LINE-1 (long interspersed nucleotide factor −1) was determined by using a method of pyrosequencing.
Solutions of silyl etherified derivatives of 5-aza-2′-deoxycytidine in carbohydrate moiety (for example, Compound F: 5′-O-(triethylsilyl)-5-aza-2′-deoxycytidine) at concentrations of 0.1 nM, 1.0 nM, 5.0 nM, 10.0 nM, and 50.0 nM were added, respectively to a solution containing BV173 cell line (about 50,000 cells/mL), and cultured in a RPMI-1640 medium (containing 10% FBS and Penn-strep) for 72 hours. Then, DNA was extracted from the cells and treated with hydrogensulfite. CpG methylation ratio of LINE-1 was determined (see Table 4).

Chain of cytidine deaminase (P32320 whole entry): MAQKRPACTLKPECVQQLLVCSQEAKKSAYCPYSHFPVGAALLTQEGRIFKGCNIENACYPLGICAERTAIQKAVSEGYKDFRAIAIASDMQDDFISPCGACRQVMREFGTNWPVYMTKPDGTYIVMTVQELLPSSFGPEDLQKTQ

Take `Nc1ncn([C@H]2C[C@H](O)[C@@H](CO)O2)c(=O)n1` [5-Aza-2′-deoxycytidine]: at cytidine deaminase, the “Change in HPLC pattern” value is “The peak for starting material disappeared” and the “stability to cytidine deaminase (in words)” value is “disappeared completely”. The “time within which decomposed in the presence of cytidine deaminase” value at cytidine deaminase (under the condition used) is no more than 30 min.
With `CC[Si](CC)(CC)OC[C@H]1O[C@@H](n2cnc(N)nc2=O)C[C@@H]1O` [Compound F, 5′-O-(Triethylsilyl)-5-aza-2′-deoxycytidine], the IC50 in the series with Ba/F3 BCR-ABL^T315I (Mus musculus, BaF3, 72 h, read-out: IC50 Ba/F3 BCR-ABL^T315I) was 780 nM; in the series on MYL-R (72 h, read-out: IC50 MYL-R) it was 790 nM; in the series on Ba/F3 BCR-ABL^WT, 580 nM; with BV173 (Homo sapiens, BV-173, 72 h, read-out: IC50 BV173), 5 nM; in the series on MYL, 280 nM. Also, in the series with Ba/F3 BCR-ABL^T315I (ratio of IC50 in Ba/F3 BCR-ABL^T315I to Ba/F3 BCR-ABL^WT), the “IC50 ratio Ba/F3 BCR-ABL^T315I/BCR-ABL^WT” value is listed as 1.4. Also, the “anti-CML activity against MYL-R strain compared with reference nucleosides (in words)” value with MYL-R (MYL-R) is reported as “considerably higher than that in the case of 5-aza cytidine”. Further, in the series on MYL-R (TKI-resistant CML cell lines of Table 3-1 (MYL-R, Ba/F3 BCR-ABL^T315I)), the “anti-TKI-resistant CML activity (in words)” value is “anti-TKI-resistant CML activity”. In the series with MYL-R (ratio of IC50 in MYL-R to MYL), the “IC50 ratio MYL-R/MYL” value came out at 2.8. Besides, the “anti-CML activity (in words)” value in the series with BV173 (CML cell lines of Table 3-1 (BV173, MYL, Ba/F3 BCR-ABL^WT)) was “very high anti-CML activity”. In addition, the “5-Aza-2′-deoxycytidine (%) After 4 hours” value in series [1] (10 mM PBS, 4 hours, desilyl form produced) is recorded as 10%. Besides, the “5-Aza-2′-deoxycytidine (%) After 8 hours” value in series [1] (10 mM PBS, 8 hours, desilyl form produced) was determined as 12%. In series [1] (10 mM PBS, 24 hours, desilyl form produced), the “5-Aza-2′-deoxycytidine (%) After 24 hours” value is recorded as 48%. Besides, the “non-enzymatic hydrolysis in PBS solution (in words)” value in series [1] (PBS) is “the corresponding desilyl form (5-aza-2′-deoxycytizine: R^1 and R^2 are hydrogen atoms in formula (I)) was produced almost without other decomposition products”. The “Change in HPLC pattern” value at cytidine deaminase (PBS with recombinant human cytidine deaminase, 37° C., about 1 hour) is on record as “Almost no change in the peak for”. In addition, the Methylation ratio in series [2] (0.1 nM) was determined as 89.3%; in series [2] (1.0 nM) it was 89.7%; in series [2] (5.0 nM), 88.0%; in series [2] (10.0 nM) it was 82.3%; in series [2] (50.0 nM), 60.0%.
